Reference: patent US5219884A, “Immunosuppressant” (Taito Co., Ltd., priority 1990, dated 1993)
Read-outs that look alike come from different tables or passages of the source.

Tests used:
in vitro = format: cell-based, human; settings: human, read-out: Suppression
Experimental: (§1) Cytotoxicity to human tumor cell lines was examined as follows:
(§2) Cells of human cell lines, K562, MOLT4, U937, HL60, KATOIII, KB, PC-6, PC-14 and CCRF-CEM were separately suspended to the concentration of 2×10^5 cells/ml in the RPMI1640 culture medium supplemented with 20% FCS. Fifty μl of this suspension was added to each well of 96-well microculture plates to which 50 μl of the test solution had been added. After culturing at 37° C. in an atmosphere of 5% carbon dioxide for 72 hours, the absorbancy at 550 nm was measured in the same way as the colorimetry using MTT in Experimental Example 1, and the percent suppression was calculated in the same manner as in Experimental Example 14, which was used as the index of cytotoxicity.

CCRF-CEM = experiment: in vitro; format: cell-based, human
Experimental: as §1, §2

U937 = experiment: in vitro; format: cell-based, human
Experimental: as §1, §2

PC-14 = experiment: in vitro; format: cell-based, human
Experimental: as §1, §2

K562 = experiment: in vitro; format: cell-based, human
Experimental: as §1, §2

HL60 = experiment: in vitro; format: cell-based, human
Experimental: as §1, §2

KB = experiment: in vitro; format: cell-based, human
Experimental: as §1, §2

MOLT4 = experiment: cytotoxicity to tumor cell line MOLT4; format: cell-based, human
Experimental: as §1, §2

[1] = cytotoxicity to tumor cell line MOLT4; format: cell-based, human; settings: human, molt4 cells, read-out: Suppression
Experimental: as §1, §2

[2] = tested on: mouse allogenic mixed lymphocyte reaction (BALB/c responder, C57BL/6 stimulator spleen cells); experiment: mouse allogenic mixed lymphocyte reaction (MLR), blastogenesis by 3H-thymidine uptake; format: cell-based; settings: for inhibition at 0.001 µg/mL / inhibition at 0.01 µg/mL / inhibition at 0.1 µg/mL: Mus musculus, Lymphocyte, read-out: Suppression
Experimental: The immunosuppressive activity of the compounds (I) and their lactones was assayed by using mouse allogenic mixed lymphocyte reaction (hereinafter sometimes abbreviated as MLR). Mouse allogenic MLR was carried out by mixed culture of the BALB/c mouse (H-2^d) spleen cells as the responder cells and the mitomycin C-treated C57BL/6 (H-2^b) spleen cells as the stimulator cells in equal amounts.
The responder cells were prepared as follows: The spleen was resected from 5- to 6-week-old male BALB/c mice, and single cell suspension of spleen cells was prepared by using the RPMI1640 culture medium (containing 60 μg/ml of kanamycin sulfate, 2 mM of L-glutamine, 10 mM of N-2-hydroxyethylpiperazine-N'-2-ethanesulfonate (HEPES) and 0.1% sodium hydrogencarbonate) to which heat-inactivated fetal calf serum (hereinaftersometimes abbreviated as FCS) had been added to 5%. After hemolytic treatment, the cell suspension was adjusted to a concentration of 10^7 cells/ml by using the RPMI1640 culture medium supplemented with 10^-4 M 2-mercaptoethanol and 20% FCS, and was used as the responder cell suspension.
The stimulator cells were prepared as follows:
The spleen was resected from 5- to 6-week-old male C57BL/6 mice, and single cell suspension of spleen cells was prepared by using the RPMI1640 culture medium. After hemolytic treatment, the cells were treated with 40 μg/ml of mitomycin C at 37° C. for 60 minutes. After washing three times, the concentration of the cell suspension was adjusted to 10^7 cells/ ml by using the RPMI1640 culture medium supplemented with 10^-4 M 2-mercaptoethanol and 20% FCS, and was used as the stimulator cell suspension.
Fifty μl of the responder cell suspension, 50μl of the stimulator cell suspension prepared by the above method, and 100 μl of the test substance were placed in 96-well microculture plates, and were cultured at 37° C. in an atmosphere of 5% carbon dioxide for 4 days.
The blastogenesis of lymphocytes was assayed by a method of ^3 H-thymidine uptake as an index. That is, after termination of the culture, 0.5 μCi/well of ^3 H-thymidine was added and cultured for 4 hours. Cells were harvested by a cell-harvester, and the radioactivity incorporated into the cells was determined by a liquid scintillation counter to obtain the index of blastogenesis of lymphocytes in the mouse allogenic MLR. The suppression of the mouse allogenic MLR was evaluated by calculating the percent suppression by the following formula. [formula]
The test substance was dissolved in methanol or suspended in a mixture of methanol and acetic acid, and then diluted with the RPMI1640 culture medium.

[3] = cytotoxicity to mouse L929 cells; format: cell-based; settings: mouse, l929 cells, read-out: Suppression
Experimental: (§3) Cytotoxicity to mouse L929 cells was assayed as follows:
(§4) L929 cells were suspended to the concentration of 1.5×10^5 cells/ml in the F12 culture medium supplemented with 10% FCS. One hundred μl of the suspension was added to each well of 96-well microculture plates, and cultured at 37° C. in an atmosphere of 5% carbon dioxide for 24 hours, to which 100 μl of the test solution was added and cultured for further 48 hours. After the culture, 100 μl of the supernatant was removed and the absorbancy at 550 nm was measured in the same way as the colormetry using MTT in Experimental Example 1. The percent suppression was calculated by the following formula used as the index of cytotoxicity. [formula]

mouse L929 cells = experiment: cytotoxicity to mouse L929 cells; format: cell-based; settings: 550 nm
Experimental: as §3, §4

Molecule `CCCCCCC(O)CCCCCC/C=C/CC(O)C(O)C(N)(CO)C(=O)O` (stereo not drawn) [Example 6] has a cytotoxicity at 72 h (in vitro; ccrf-cem cells, 0.1 μg/ml) of 8%, a cytotoxicity at 72 h (in vitro; ccrf-cem cells, 1.0 μg/ml) of 9.1% and a cytotoxicity at 72 h (in vitro; ccrf-cem cells, 10.0 μg/ml) of 5.6%. It also gave a cytotoxicity at 72 h (in vitro; hl60 cells, 0.1 μg/ml) of 16%, a cytotoxicity at 72 h (in vitro; hl60 cells, 1.0 μg/ml) of 21% and a cytotoxicity at 72 h (in vitro; hl60 cells, 10.0 μg/ml) of 17%. It also gave a cytotoxicity at 72 h (in vitro; k562 cells, 0.1 μg/ml) of 1.6%, a cytotoxicity at 72 h (in vitro; k562 cells, 1.0 μg/ml) of 4.5% and a cytotoxicity at 72 h (in vitro; k562 cells, 10.0 μg/ml) of 3%. For the same molecule, the cytotoxicity at 72 h (in vitro; kb cells, 0.1 μg/ml) was 0%, the cytotoxicity at 72 h (in vitro; kb cells, 1.0 μg/ml) was 0.3% and the cytotoxicity at 72 h (in vitro; kb cells, 10.0 μg/ml) was 3.2%. For the same molecule, the cytotoxicity at 72 h (in vitro; pc-14 cells, 0.1 μg/ml) was 21.5%, the cytotoxicity at 72 h (in vitro; pc-14 cells, 1.0 μg/ml) was 14.6% and the cytotoxicity at 72 h (in vitro; pc-14 cells, 10.0 μg/ml) was 25.9%. The cytotoxicity at 72 h (in vitro; u937 cells, 0.1 μg/ml) was 14%, the cytotoxicity at 72 h (in vitro; u937 cells, 1.0 μg/ml) was 9.9% and the cytotoxicity at 72 h (in vitro; u937 cells, 10.0 μg/ml) was 10.1%. For the same molecule, the Absorbancy (CCRF-CEM; 0.1 μg/ml) was 0.463, the Absorbancy (CCRF-CEM; 1.0 μg/ml) was 0.457 and the Absorbancy (CCRF-CEM; 10.0 μg/ml) was 0.475. The Absorbancy (U937; 0.1 μg/ml) was 0.439, the Absorbancy (U937; 1.0 μg/ml) was 0.436 and the Absorbancy (U937; 10.0 μg/ml) was 0.435. For the same molecule, the Absorbancy (PC-14; 0.1 μg/ml) was 0.372, the Absorbancy (PC-14; 1.0 μg/ml) was 0.405 and the Absorbancy (PC-14; 10.0 μg/ml) was 0.351. It also gave an Absorbancy (K562; 0.1 μg/ml) of 0.823, an Absorbancy (K562; 1.0 μg/ml) of 0.798 and an Absorbancy (K562; 10.0 μg/ml) of 0.811. The Absorbancy (HL60; 0.1 μg/ml) was 0.619, the Absorbancy (HL60; 1.0 μg/ml) was 0.589 and the Absorbancy (HL60; 10.0 μg/ml) was 0.627. It also gave an Absorbancy (KB; 0.1 μg/ml) of 0.771, an Absorbancy (KB; 1.0 μg/ml) of 0.728 and an Absorbancy (KB; 10.0 μg/ml) of 0.707. For the same molecule, the Absorbancy (MOLT4; 0.1 μg/ml) was 0.615, the Absorbancy (MOLT4; 1.0 μg/ml) was 0.599 and the Absorbancy (MOLT4; 10.0 μg/ml) was 0.567. For the same molecule, the cytotoxicity at 72 h ([1]; 0.1 μg/ml) was 0.8%, the cytotoxicity at 72 h ([1]; 1.0 μg/ml) was 3.4% and the cytotoxicity at 72 h ([1]; 10.0 μg/ml) was 8.5%. The 3H-thymidine uptake ([2]; 0.001 μg/ml) was 16237 cpm, the 3H-thymidine uptake ([2]; 0.01 μg/ml) was 9276 cpm and the 3H-thymidine uptake ([2]; 0.1 μg/ml) was 3017 cpm. The inhibition at 0.001 µg/mL ([2]; 0.001 μg/ml) was 52.3%, the inhibition at 0.01 µg/mL ([2]; 0.01 μg/ml) was 85.4% and the inhibition at 0.1 µg/mL ([2]; 0.1 μg/ml) was 100%. For the same molecule, the cytotoxicity at 48 h ([3]; 0.1 μg/ml) was 0%, the cytotoxicity at 48 h ([3]; 1 μg/ml) was 0% and the cytotoxicity at 48 h ([3]; 10 μg/ml) was 0%. The Absorbancy (mouse L929 cells; 0.1 μg/ml) was 0.732, the Absorbancy (mouse L929 cells; 1 μg/ml) was 0.714 and the Absorbancy (mouse L929 cells; 10 μg/ml) was 0.733.

For `CCCCCCC(O)CCCCCCCCCC(O)C(O)C(N)(CO)C(=O)O` (stereo not drawn) [Example 9], the cytotoxicity at 72 h (in vitro; ccrf-cem cells, 0.1 μg/ml) was 0%, the cytotoxicity at 72 h (in vitro; ccrf-cem cells, 1.0 μg/ml) was 0% and the cytotoxicity at 72 h (in vitro; ccrf-cem cells, 10.0 μg/ml) was 1.7%. The cytotoxicity at 72 h (in vitro; hl60 cells, 0.1 μg/ml) was 13.8%, the cytotoxicity at 72 h (in vitro; hl60 cells, 1.0 μg/ml) was 16.7% and the cytotoxicity at 72 h (in vitro; hl60 cells, 10.0 μg/ml) was 20.9%. It also gave a cytotoxicity at 72 h (in vitro; k562 cells, 0.1 μg/ml) of 1.8%, a cytotoxicity at 72 h (in vitro; k562 cells, 1.0 μg/ml) of 5.5% and a cytotoxicity at 72 h (in vitro; k562 cells, 10.0 μg/ml) of 17.7%. For the same molecule, the cytotoxicity at 72 h (in vitro; kb cells, 0.1 μg/ml) was 0%, the cytotoxicity at 72 h (in vitro; kb cells, 1.0 μg/ml) was 0% and the cytotoxicity at 72 h (in vitro; kb cells, 10.0 μg/ml) was 4.7%. The cytotoxicity at 72 h (in vitro; pc-14 cells, 0.1 μg/ml) was 14.8%, the cytotoxicity at 72 h (in vitro; pc-14 cells, 1.0 μg/ml) was 7% and the cytotoxicity at 72 h (in vitro; pc-14 cells, 10.0 μg/ml) was 21.1%. The cytotoxicity at 72 h (in vitro; u937 cells, 0.1 μg/ml) was 0%, the cytotoxicity at 72 h (in vitro; u937 cells, 1.0 μg/ml) was 0% and the cytotoxicity at 72 h (in vitro; u937 cells, 10.0 μg/ml) was 0%. The Absorbancy (CCRF-CEM; 0.1 μg/ml) was 0.702, the Absorbancy (CCRF-CEM; 1.0 μg/ml) was 0.696 and the Absorbancy (CCRF-CEM; 10.0 μg/ml) was 0.680. It also gave an Absorbancy (U937; 0.1 μg/ml) of 0.640, an Absorbancy (U937; 1.0 μg/ml) of 0.592 and an Absorbancy (U937; 10.0 μg/ml) of 0.584. The Absorbancy (PC-14; 0.1 μg/ml) was 0.404, the Absorbancy (PC-14; 1.0 μg/ml) was 0.441 and the Absorbancy (PC-14; 10.0 μg/ml) was 0.374. The Absorbancy (K562; 0.1 μg/ml) was 0.378, the Absorbancy (K562; 1.0 μg/ml) was 0.364 and the Absorbancy (K562; 10.0 μg/ml) was 0.317. The Absorbancy (HL60; 0.1 μg/ml) was 0.450, the Absorbancy (HL60; 1.0 μg/ml) was 0.435 and the Absorbancy (HL60; 10.0 μg/ml) was 0.413. It also gave an Absorbancy (KB; 0.1 μg/ml) of 0.778, an Absorbancy (KB; 1.0 μg/ml) of 0.762 and an Absorbancy (KB; 10.0 μg/ml) of 0.696. For the same molecule, the Absorbancy (MOLT4; 0.1 μg/ml) was 0.111, the Absorbancy (MOLT4; 1.0 μg/ml) was 0.132 and the Absorbancy (MOLT4; 10.0 μg/ml) was 0.142. For the same molecule, the cytotoxicity at 72 h ([1]; 0.1 μg/ml) was 23.4%, the cytotoxicity at 72 h ([1]; 1.0 μg/ml) was 9% and the cytotoxicity at 72 h ([1]; 10.0 μg/ml) was 2.1%. The 3H-thymidine uptake ([2]; 0.001 μg/ml) was 25682 cpm, the 3H-thymidine uptake ([2]; 0.01 μg/ml) was 23668 cpm and the 3H-thymidine uptake ([2]; 0.1 μg/ml) was 3167 cpm. The inhibition at 0.001 µg/mL ([2]; 0.001 μg/ml) was 7.5%, the inhibition at 0.01 µg/mL ([2]; 0.01 μg/ml) was 17.1% and the inhibition at 0.1 µg/mL ([2]; 0.1 μg/ml) was 100%. The cytotoxicity at 48 h ([3]; 1 μg/ml) was 0%, the cytotoxicity at 48 h ([3]; 10 μg/ml) was 0% and the cytotoxicity at 48 h ([3]; 100 μg/ml) was 1%. It also gave an Absorbancy (mouse L929 cells; 1 μg/ml) of 0.749, an Absorbancy (mouse L929 cells; 10 μg/ml) of 0.747 and an Absorbancy (mouse L929 cells; 100 μg/ml) of 0.567.
